The target in the experiment is T1, LPA2 receptor (LPA2R) (Homo sapiens, UniProt Q9HBW0).
T1 construct: expressed in transfected cells; host or cells: U2OS
Description: LPA2R-Calciumflux assay (intracellular calcium mobilisation, FLIPR). In kind it is cell-based. The note with it: U2OS cells recombinant expressing LPA2R; inhibition of LPA-induced Ca-flux; 10 concentrations 30 uM to 1 nM, 1% DMSO. An excerpt: The assay detects intra cellular calcium which is generated by cells upon activation of the LPA2 receptor by its ligand LPA. This transient calcium mobilization can be monitored using a commercial calcium detection kit (e.g. from Molecular Devices). The main component of such a kit is a dye, which becomes fluorescent when calcium is present—a transient fluorescence signal after laddition of a ligand to a test well are the result. Readers like the FLIPR (Molecular Devices) can be used to monitor such transient “Ca-flux” signals.
The signals are calculated according to peak maximum minus base line.
The assay is performed in microplates (384 wells per plate).
LPA2R-Calciumflux Assay Protocol
The assay is run according to the following procedure: • 50 uL seed cells (10000 cells/well in DMEM buffer) • Incubate 24 h at 37° C., 10% CO2 • aspirate medium • 50 uL add calcium dye 1×HBSS/HEPES buffer • incubate 1 h at 37° C. (“loading”) • equilibrate 10 min at RT • 5 uL add compounds in HEPES buffer • shake 10 sec. at 1000 rpm • incubate 15 min at RT • 20 uL add LPA (in the FLIPR Tetra) in Krebs-buffer/BSA & measurement
The cells are seeded in DMEM buffer (DMEM, 10% FCS, 10 mM HEPES, 1% Pen/Strep).
Dye loading is done in HBSS/HEPES buffer (100 mL 10×HBSS+20 mL 1M HEPES+880 mL water, pH 7.4)
The LPA is added in Krebs/BSA buffer (120 mM NaCl, 5 mM KCl, 0.62 mM MgSO4, 1.8 mM CaCl2, 10 mM HEPES, 6 mM D(+)-Glucose, 0.2% BSA, pH 7.4).
The compounds are pre-diluted in HEPES buffer (20 mM, pH 7.4), whereby the final DMSO content in the assay is kept at 1%. The compounds are pre-diluted in order to generate dose response series on the microplates. The dose response series consist of 10 concentrations for each compound from 30 uM final to 1 nM final. From all compound wells the resulting signals are referred to control wells (located on each plate besides the compound wells) in terms of % activity.
From these % activity values—along with the corresponding compound concentrations—IC50 values are fitted for each compound using standard fitting programs such as Graphpad Prism. Here the method “log(inhibitor) vs. response—Variable slope” is used.
On the technique in general: A change in cytosolic calcium serves as a functional read-out for many receptors and channels.

The values below come from US9527850B2, “Benzyl piperidine compounds as lysophosphatidic acid (LPA) receptor antagonist” (Merck Patent GmbH, priority 2011, dated 2016).

Where only a bound is given, the exact number is not on record here.

T1 sequence (Q9HBW0 whole entry): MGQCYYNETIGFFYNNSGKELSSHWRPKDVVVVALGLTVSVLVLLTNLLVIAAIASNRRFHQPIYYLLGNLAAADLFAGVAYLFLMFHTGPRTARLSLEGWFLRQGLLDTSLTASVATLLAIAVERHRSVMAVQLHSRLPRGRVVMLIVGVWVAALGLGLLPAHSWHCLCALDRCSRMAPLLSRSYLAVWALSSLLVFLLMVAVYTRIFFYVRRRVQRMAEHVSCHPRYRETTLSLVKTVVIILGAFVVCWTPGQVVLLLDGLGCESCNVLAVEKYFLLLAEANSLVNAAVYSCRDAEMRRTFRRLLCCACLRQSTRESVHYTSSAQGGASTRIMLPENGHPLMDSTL

As for `CCc1nc(CN2CCCCC2c2cc3cc(F)ccc3[nH]2)cs1` (stereo not shown) [compound 85], the IC50 (in general, the concentration that inhibits the measured activity by half) is < 500 nM. To `N#Cc1cccc(CN2CCCCC2c2cc3cc(F)ccc3[nH]2)c1` (stereo not shown) [compound 86, 3-[2-(5-Fluoro-1H-indol-2-yl)-piperidin-1-ylmethyl]-benzonitrile] belongs 500 to 5000 nM; to `Cc1ccc(CN2CCC(C)CC2c2cc3cc(F)ccc3[nH]2)cc1C` (stereo not shown) [compound 87, 2-[1-(3,4-Dimethyl-benzyl)-4-methyl-piperidin-2-yl]-5-fluoro-1H-indole], < 500 nM. As to `Cc1ccc(CN2CCCCC2c2nc3ccc(Cl)cc3[nH]2)cc1C` (stereo not shown) [compound 88, 6-Chloro-2-[1-(3,4-dimethyl-benzyl)-piperidin-2-yl]-1H-benzo-imidazole], the IC50 is < 500 nM. To `FC(F)(F)c1cccc(CN2CCCCC2c2nc3ccc(Cl)cc3[nH]2)c1` (stereo not shown) [compound 89] belongs 500 to 5000 nM; to `Cc1ccc(CN2CCCCC2c2nc3ccc(Cl)cc3[nH]2)cc1C(F)(F)F` (stereo not shown) [compound 90], 500 to 5000 nM; to `Cc1cccc(CN2CCCCC2c2nc3ccc(Cl)cc3[nH]2)c1` (stereo not shown) [compound 91, 6-Chloro 2-[1-(3-methyl-benzyl)-piperidin-2-yl]-1H-benzo-imidazole], < 500 nM. To `FC(F)(F)c1cccc(CN2CCCCC2c2nc3ccc(Br)cc3[nH]2)c1` (stereo not shown) [compound 92] belongs 500 to 5000 nM; to `Cc1ccc(CN2CCCCC2c2nc3ccc(Br)cc3[nH]2)cc1C(F)(F)F` (stereo not shown) [compound 93], 500 to 5000 nM; to `CC1(C)CCC(C)(C)c2cc(CN3CCCCC3c3nc4ccc(Br)cc4[nH]3)ccc21` (stereo not shown) [compound 94, 6-Bromo-2-[1-(5,5,8,8-tetramethyl-5,6,7,8-tetrahydro-naphthalen-2-ylmethyl)-piperidin-2-yl]-1H-benzo-imidazole], 5000 to 15000 nM. The value for `Cc1cccc(CN2CCCCC2c2nc3ccc(Br)cc3[nH]2)c1` (stereo not shown) [compound 95, 6-Bromo-2-[1-(3-methyl-benzyl)-piperidin-2-yl]-1H-benzo-imidazole] was < 500 nM; that for `Cc1ccc(CN2CCCCC2c2nc3ccc(Br)cc3[nH]2)cc1C` (stereo not shown) [compound 96, 6-Bromo-2-[1-(3,4-dimethyl-benzyl)-piperidin-2-yl]-1H-benzo-imidazole] was < 500 nM. As to `Cc1cc(Cl)cc2nc(C3CCCCN3Cc3ccc4c(c3)C(C)(C)CCC4(C)C)[nH]c12` (stereo not shown) [compound 97, 5-Chloro-7-methyl-2-[1-(5,5,8,8-tetramethyl-5,6,7,8-tetrahydro-naphthalen-2-ylmethyl)-piperidin-2-yl]-1H-benzo-imidazole], the IC50 fell in the range of 500 to 5000 nM. Take `Cc1cc(Cl)cc2nc(C3CCCCN3Cc3cccc(C(F)(F)F)c3)[nH]c12` (stereo not shown) [compound 98]: the IC50 lay in the range of 500 to 5000 nM. As for `Cc1cccc(CN2CCCCC2c2nc3cc(Cl)cc(C)c3[nH]2)c1` (stereo not shown) [compound 99, 5-Chloro-7-methyl-2-[1-(3-methyl-benzyl)-piperidin-2-yl]-1H-benzo-imidazole], the IC50 lay within 500 to 5000 nM.

Take `Cc1ccc(CN2CCCCC2c2nc3cccc(C)c3[nH]2)cc1C` (stereo not shown) [compound 100, 2-[1-(3,4-Dimethyl-benzyl)-piperidin-2-yl]-7-methyl-1H-benzo-imidazole]: the IC50 is < 500 nM. For `CC(c1ccccc1)N1CCCCC1c1nc2cc(F)ccc2[nH]1` (stereo not shown) [compound 101, 5-Fluoro-2-[1-(1-phenyl-ethyl)-piperidin-2-yl]-1H-benzo-imidazole], the IC50 was 500 to 5000 nM. To `Fc1ccc2[nH]c(C3CCCCN3Cc3ccccc3)nc2c1` (stereo not shown) [compound 102, 2-(1-Benzyl-piperidin-2-yl)-5-fluoro-1H-benzo-imidazole] belongs 500 to 5000 nM; to `Cc1ccc(CN2CCCCC2c2nc3cc(F)ccc3n2C)cc1C` (stereo not shown) [compound 103, 2-[1-(3,4-Dimethyl-benzyl)-piperidin-2-yl]-5-fluoro-1-methyl-1H-benzo-imidazole], 500 to 5000 nM. To `Fc1ccc2[nH]c(C3CCCCN3CCc3ccccc3)nc2c1` (stereo not shown) [compound 104, 5-Fluoro-2-(1-phenethyl-piperidin-2-yl)-1H-benzo-imidazole] belongs 500 to 5000 nM; to `Cc1ccc(CN2CCCCC2c2nc3cc(Cl)cc(C)c3[nH]2)cc1C` (stereo not shown) [compound 105], 500 to 5000 nM. The value for `Cc1cccc(CN2CCCCC2c2nc3cc(C)c(Cl)cc3[nH]2)c1` (stereo not shown) [compound 106, 6-Chloro-5-methyl-2-[1-(3-methyl-benzyl)-piperidin-2-yl]-1H-benzo-imidazole] was < 500 nM; that for `COc1ccc(CN2CCCCC2c2cc3cc(F)ccc3[nH]2)cc1` (stereo not shown) [compound 107, 5-Fluoro-2-[1-(4-methoxy-benzyl)-piperidin-2-yl]-1H-indole] was < 500 nM. Take `Cc1ccc(CN2CCCCC2c2cc3cc(F)ccc3[nH]2)cc1` (stereo not shown) [compound 108, 5-Fluoro2-[1-(4-methyl-benzyl)-piperidin-2-yl]-1H-indole]: the IC50 is < 500 nM. For `COc1cccc(CN2CCCCC2c2cc3cc(F)ccc3[nH]2)c1` (stereo not shown) [compound 109, 5-Fluoro-2-[1-(3-methoxy-benzyl)-piperidin-2-yl]-1H-indole], the IC50 was < 500 nM. The value for `Cn1nc(CN2CCCCC2c2cc3cc(F)ccc3[nH]2)c2ccccc21` (stereo not shown) [compound 110, 3-[2-(5-Fluoro-1H-indol-2-yl)-piperidin-1-ylmethyl]-1-methyl-1H-indazole] was < 500 nM. As to `Fc1ccc(CCN2CCCCC2c2cc3cc(F)ccc3[nH]2)cc1` (stereo not shown) [compound 111, 5-Fluoro-2-{1-[2-(4-fluoro-phenyl)-ethyl]-piperidin-2-yl}-1H-indole], the IC50 fell in the range of 500 to 5000 nM. For `Fc1ccc(CN2CCCCC2c2cc3cc(F)ccc3[nH]2)c(F)c1` (stereo not shown) [compound 112, 2-[1-(2,4-Difluoro-benzyl)-piperidin-2-yl]-5-fluoro-1H-indole], the IC50 was < 500 nM. To `Cc1cc2nc(C3CCCCN3Cc3ccc4c(c3)C(C)(C)CCC4(C)C)[nH]c2cc1Cl` (stereo not shown) [compound 113, 6-Chloro-5-methyl-2-[1-(5,5,8,8-tetramethyl-5,6,7,8-tetrahydro-naphthalen-2-ylmethyl)-piperidin-2-yl]-1H-benzo-imidazole] belongs 500 to 5000 nM; to `Cc1ccc(CN2CCCCC2c2nc3cc(C)c(Cl)cc3[nH]2)cc1C` (stereo not shown) [compound 114, 6-Chloro-2-[1-(3,4-dimethyl-benzyl)-piperidin-2-yl]-5-methyl-1H-benzo-imidazole], < 500 nM. To `NS(=O)(=O)c1ccc2nc(C3CCCCN3Cc3cccc(C(F)(F)F)c3)[nH]c2c1` (stereo not shown) [compound 115] belongs 500 to 5000 nM; to `Cc1ccc(CN2CCCCC2c2nc3ccc(S(N)(=O)=O)cc3[nH]2)cc1C` (stereo not shown) [compound 116, 2-[1-(3,4-Dimethyl-benzyl)-piperidin-2-yl]-3H-benzo-imidazole-5-sulfonic acid amide], < 500 nM. As for `Cc1ccc(CN2CCCCC2c2nc3ccc(S(N)(=O)=O)cc3[nH]2)cc1C(F)(F)F` (stereo not shown) [compound 117], the IC50 was in the range of 500 to 5000 nM. To `CC1(C)CCC(C)(C)c2cc(CN3CCCCC3c3nc4ccc(S(N)(=O)=O)cc4[nH]3)ccc21` (stereo not shown) [compound 118, 2-[1-(5,5,8,8-Tetramethyl-5,6,7,8-tetrahydro-naphthalen-2-ylmethyl)-piperidin-2-yl]-3H-benzo-imidazole-5-sulfonic acid amide] belongs 500 to 5000 nM; to `Cc1ccc(CN2CCCC[C@@H]2c2nc3cc(F)ccc3[nH]2)cc1C` [compound 119, 2-[(R)-1-(3,4-Dimethyl-benzyl)-piperidin-2-yl]-5-fluoro-1H-benzo-imidazole], < 500 nM; to `Fc1ccc(CN2CCCCC2c2nc3cc(Cl)cnc3[nH]2)cc1` (stereo not shown) [compound 120, 6-Chloro-2-[1-(4-fluoro-benzyl)-piperidin-2-yl]-3H-imidazo[4,5-b]pyridine], < 500 nM. As for `CCc1nc(CN2CCCCC2c2nc3cc(F)ccc3[nH]2)cs1` (stereo not shown) [compound 121, 2-[1-(2-Ethyl-thiazol-4-ylmethyl)-piperidin-2-yl]-5-fluoro-1H-benzo-imidazole], the IC50 is < 500 nM. Regarding `Fc1ccc2[nH]c(C3CCCCN3Cc3csc(Cl)n3)nc2c1` (stereo not shown) [compound 122, 2-[1-(2-Chloro-thiazol-4-ylmethyl)-piperidin-2-yl]-5-fluoro-1H-benzo-imidazole], the IC50 lay within 500 to 5000 nM. The value for `Cc1nc(CN2CCCCC2c2nc3cc(F)ccc3[nH]2)cs1` (stereo not shown) [compound 123] was 500 to 5000 nM; that for `Fc1ccc(CN2CCCC[C@H]2c2cc3ccccc3[nH]2)cc1` [compound 124, 2-[(S)-1-(4-Fluoro-benzyl)-piperidin-2-yl]-1H-indole] was 500 to 5000 nM.
